Consider one compound from doi:10.1101/2019.12.17.868638v2 (biorxiv, 2019).

The subject of this experiment is RlSQase* (sulfoquinovosidase, K375A/K376A SERp variant). Particulars: 50 mM sodium phosphate, 150 mM NaCl, pH 7.2, 30 °C, 212 nM enzyme.

The Km is the substrate concentration at which the rate is half of its maximum.

Turning to `O=[N+]([O-])c1ccc(O[C@H]2O[C@H](CS(=O)(=O)O)[C@@H](O)[C@H](O)[C@H]2O)cc1` [PNPSQ], the Km stood at 680 ± 250 µM.
